In ChEMBL document CHEMBL1201862, “PubChem BioAssay data set” (2004):
Active and inactive are the calls of the source.

Columns and labels:
Cytochrome P450 3A4 = Cytochrome P450 3A4 (Homo sapiens, UniProt P08684); conditions: Potency;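 note: confirmatory qHTS run detecting inhibitors and substrates of CYP3A4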
Nonstructural protein 1 = Nonstructural protein 1 (Influenza A virus, UniProt Q194T2); type: functional, Influenza A virus (A/California/07/2009(H1N1))
[1] = target: Heat shock protein HSP 90-alpha (Homo sapiens, UniProt P07900); type: functional, organism-based
[2] = target: T1, High affinity choline transporter 1 (Homo sapiens, UniProt Q9GZV3); assay: human choline transporter blockers, potency – cell-based, 5-point CRC, membrane potential dye, dose response (AID 504840); type: functional
T1 sequence (Q9GZV3 whole entry): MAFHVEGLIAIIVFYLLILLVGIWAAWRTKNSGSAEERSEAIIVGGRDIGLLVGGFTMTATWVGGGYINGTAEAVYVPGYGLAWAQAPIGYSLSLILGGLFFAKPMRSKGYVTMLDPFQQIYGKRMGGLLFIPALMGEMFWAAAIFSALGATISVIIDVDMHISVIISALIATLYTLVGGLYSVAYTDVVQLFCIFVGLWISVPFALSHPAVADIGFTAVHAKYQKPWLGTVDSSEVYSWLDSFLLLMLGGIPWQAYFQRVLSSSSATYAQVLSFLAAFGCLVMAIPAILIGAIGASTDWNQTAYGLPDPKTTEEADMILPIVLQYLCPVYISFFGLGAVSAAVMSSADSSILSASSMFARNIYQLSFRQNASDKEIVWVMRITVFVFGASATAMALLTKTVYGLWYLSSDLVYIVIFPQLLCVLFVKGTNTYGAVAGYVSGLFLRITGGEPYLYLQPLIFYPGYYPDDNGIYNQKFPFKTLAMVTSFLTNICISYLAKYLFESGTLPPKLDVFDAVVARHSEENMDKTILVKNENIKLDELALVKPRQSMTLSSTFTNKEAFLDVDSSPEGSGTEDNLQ

Large T antigen = Large T antigen (Simian virus 40, UniProt P03070); type: functional, Betapolyomavirus macacae;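 note: Confirmatory-stage PubChem screen for compounds that inhibit SV40 T antigen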
[3] = target: T2, RNA-binding protein pos-1 (Caenorhabditis elegans, UniProt G5EF15); assay: disruptors of C. elegans POS-1 RNA interaction – biochemical, fluorescence polarization, dose response (AID 1964);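 note: purified POS-1 fused to maltose binding protein made in E. coli; potency of compounds blocking POS-1 binding to fluorescent RNA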
T2 sequence (G5EF15 whole entry): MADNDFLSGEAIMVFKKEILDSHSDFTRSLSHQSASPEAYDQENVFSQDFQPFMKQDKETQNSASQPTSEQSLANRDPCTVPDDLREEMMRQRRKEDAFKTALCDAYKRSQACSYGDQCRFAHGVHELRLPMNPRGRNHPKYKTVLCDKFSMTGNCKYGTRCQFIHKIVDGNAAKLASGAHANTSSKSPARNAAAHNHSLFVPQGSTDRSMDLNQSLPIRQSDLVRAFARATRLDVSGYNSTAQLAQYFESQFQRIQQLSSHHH

[4] = target: T3, Zinc finger protein mex-5 (Caenorhabditis elegans, UniProt Q9XUB2); assay: potency of MEX-5 RNA-binding blockers – biochemical, C. elegans, fluorescence polarization, dose response (AID 1960)
T3 sequence (Q9XUB2 whole entry): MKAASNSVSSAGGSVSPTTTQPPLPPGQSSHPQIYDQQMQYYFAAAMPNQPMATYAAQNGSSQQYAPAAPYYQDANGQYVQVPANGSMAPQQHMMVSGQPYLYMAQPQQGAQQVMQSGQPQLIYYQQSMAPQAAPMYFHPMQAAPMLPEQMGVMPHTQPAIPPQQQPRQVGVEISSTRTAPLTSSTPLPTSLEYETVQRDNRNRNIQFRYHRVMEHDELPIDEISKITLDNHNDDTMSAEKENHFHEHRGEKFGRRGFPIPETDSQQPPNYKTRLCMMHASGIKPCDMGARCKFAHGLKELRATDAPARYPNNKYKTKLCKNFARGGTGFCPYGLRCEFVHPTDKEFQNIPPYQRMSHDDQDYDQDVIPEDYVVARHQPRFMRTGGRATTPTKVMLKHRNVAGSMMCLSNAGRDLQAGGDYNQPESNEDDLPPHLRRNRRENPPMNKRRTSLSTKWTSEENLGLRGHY

[5] = Trypanosoma cruzi growth suppression in host cells – NIH3T3 host cells, beta-gal luminescence, confirmation (AID 2044); type: functional, cell-based;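 note: intracellular parasites grown in NIH/3T3 mouse fibroblasts as host cells; luminescent beta-galactosidase reporter signal from transgenic T. cruzi replicating inside host cells; inhibitors lower the luminescence signal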
[6] = NIH3T3 cell viability loss – ATP luminescence, mouse fibroblasts, counter-screen, dose response (AID 2010); type: functional, cell-based;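 note: cells exposed to compound for about 90 hours before reading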
[7] = P. falciparum Dd2 growth inhibitors, dose response, SYBR Green, cherry-picked samples (AID 1159567); type: functional, cell-based
[8] = toxicity to human hepatoma HepG2 cells – cell-based, cherry-picked samples, cytotoxicity control, dose response (AID 1159577); type: functional

Sequence of Cytochrome P450 3A4 (P08684 whole entry): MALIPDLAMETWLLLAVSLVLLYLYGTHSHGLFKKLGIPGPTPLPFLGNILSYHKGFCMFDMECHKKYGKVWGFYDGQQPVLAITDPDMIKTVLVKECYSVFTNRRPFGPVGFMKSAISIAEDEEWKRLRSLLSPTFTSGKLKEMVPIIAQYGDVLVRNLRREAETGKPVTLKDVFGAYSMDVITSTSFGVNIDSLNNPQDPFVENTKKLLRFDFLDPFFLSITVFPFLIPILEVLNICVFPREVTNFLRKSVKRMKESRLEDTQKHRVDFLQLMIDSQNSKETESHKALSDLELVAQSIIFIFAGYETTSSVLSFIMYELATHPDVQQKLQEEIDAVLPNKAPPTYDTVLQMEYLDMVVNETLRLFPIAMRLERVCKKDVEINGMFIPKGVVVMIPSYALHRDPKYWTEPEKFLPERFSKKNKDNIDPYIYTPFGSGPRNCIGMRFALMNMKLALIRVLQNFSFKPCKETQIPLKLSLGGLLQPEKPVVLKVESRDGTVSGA
Sequence of Large T antigen (P03070 whole entry, the tested form may be a part): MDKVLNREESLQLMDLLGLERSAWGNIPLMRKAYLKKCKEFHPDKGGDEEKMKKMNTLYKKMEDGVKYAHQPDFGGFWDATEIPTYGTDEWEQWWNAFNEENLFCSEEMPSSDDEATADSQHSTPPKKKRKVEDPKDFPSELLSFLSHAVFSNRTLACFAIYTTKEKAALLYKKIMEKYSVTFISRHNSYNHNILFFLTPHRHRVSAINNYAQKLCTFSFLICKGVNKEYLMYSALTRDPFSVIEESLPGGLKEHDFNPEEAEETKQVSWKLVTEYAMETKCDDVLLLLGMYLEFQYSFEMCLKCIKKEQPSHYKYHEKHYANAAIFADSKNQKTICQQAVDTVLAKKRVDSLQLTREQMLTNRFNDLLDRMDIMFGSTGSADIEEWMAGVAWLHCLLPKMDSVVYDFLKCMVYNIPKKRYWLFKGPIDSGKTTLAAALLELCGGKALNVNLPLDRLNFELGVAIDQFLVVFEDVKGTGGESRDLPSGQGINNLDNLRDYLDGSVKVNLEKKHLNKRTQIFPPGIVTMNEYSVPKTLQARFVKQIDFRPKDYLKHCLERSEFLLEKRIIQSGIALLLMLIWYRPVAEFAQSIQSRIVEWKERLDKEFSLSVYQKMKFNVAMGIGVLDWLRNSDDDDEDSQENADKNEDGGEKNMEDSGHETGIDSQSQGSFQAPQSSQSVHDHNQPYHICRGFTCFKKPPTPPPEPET
Sequence of Nonstructural protein 1 (Q194T2 whole entry): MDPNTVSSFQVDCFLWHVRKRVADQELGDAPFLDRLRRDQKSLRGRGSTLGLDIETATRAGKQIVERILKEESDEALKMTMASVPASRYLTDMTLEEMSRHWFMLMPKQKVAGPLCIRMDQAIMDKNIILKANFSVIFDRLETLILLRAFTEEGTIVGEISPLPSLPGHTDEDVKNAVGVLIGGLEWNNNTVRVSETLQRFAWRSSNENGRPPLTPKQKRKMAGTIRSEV

CC(C)c1c(O)ccc2c1CCC1[C@@](C)(CO)CCC[C@@]21C (stereo partly drawn)
AC50 (Cytochrome P450 3A4): 39.8 µM (inconclusive)

O=C(C[n+]1ccccc1)NN=Cc1cc(Br)cc(Br)c1O
IC50 (Nonstructural protein 1): 3.68 µM (active)

O=C(OCC(=O)C12CC3CC(CC(C3)C1)C2)c1ccc(O)cc1
AC50 [1]: 1.04 µM (active)

Cc1ccc(NC(=O)CNC(=O)c2cccc(Cl)c2)nc1
IC50 [2]: 13.1 µM (active)

CC(C)c1ccc(/C=C(\NC(=O)c2ccccc2)C(=O)NCCCn2ccnc2)cc1
IC50 [2]: 15.8 µM (active)

CCCCCCC(Cl)(Cn1ccnc1)c1ccccc1 (stereo not drawn)
AC50 [1]: 8.5 µM (active)

Oc1ccc(/C=N/N2CCN(c3ccccn3)CC2)cc1
IC50 (Large T antigen): 42.5 µM (active)

Oc1c(Cl)cc(Cl)cc1/C=N/c1ccc(Br)cc1
IC50 [2]: 13.2 µM (active)

Cc1nn(-c2ccccc2)c(N2CCCC2)c1/C=N/NC(=O)c1cc(-c2cccnc2)nc2ccccc12
EC50 [3]: > 300 µM (not active)
EC50 [4]: > 300 µM (not active)
EC50 [5]: 0.306 µM (active)
EC50 [6]: 32.8 µM (active)

CCS(=O)(=O)N1[C@H](CO)[C@H](c2ccc(C#CCC3CCCC3)cc2)[C@@H]1C#N
AC50 [7]: 5.64 µM (active)
AC50 [8]: 62.4 µM (active)

CN(C)C(=O)c1ccc(-c2ccc3c(c2)[C@@H]2[C@@H](CCN2C(=O)C2CCCC2)[C@H](CO)N3C)cc1
AC50 [7]: 6.47 µM (active)
AC50 [8]: > 39 µM (inactive)

COc1ccc2c3c(n(C)c2c1)[C@H](CO)N(C(=O)Nc1ccccc1F)CC31CN(C)C1
AC50 [7]: 6.4 µM (active)
AC50 [8]: 18.5 µM (active)

CC(C)CC#Cc1ccc2c(c1)O[C@@H](CN(C)Cc1cccc(F)c1)[C@H](C)CN([C@H](C)CO)S2(=O)=O
AC50 [7]: 4.19 µM (active)
AC50 [8]: 17.1 µM (active)

CC(C)NC[C@@H]1[C@@H](c2ccc(C3=CCCCC3)cc2)[C@@H](CO)N1C(=O)CC1CC1
AC50 [7]: 6.18 µM (active)
AC50 [8]: 36 µM (active)

C=CCSSSCC=C [ALLITRIDIN]
AC50 (Cytochrome P450 3A4): 39.8 µM (inconclusive)
